Test results: US12318393B2, “Modulators of orphan nuclear receptors for NASH and other metabolic disorders” (Emory University, priority 2018, dated 2025)

Experiments:
[1] = Cellular toxicity assay in CEM cells; format: cell-based; conditions: human, CEM (human lymphoblastoid) cells, read-out: Cytotoxicity (IC50, μM) CEM
Description: The toxicity of the compounds was assessed in human PBM, CEM (human lymphoblastoid), and Huh-7 cells, as described previously (see Schinazi R. F., Sommadossi J.-P., Saalmann V., Cannon D. L., Xie M.-Y., Hart G. C., Smith G. A. & Hahn E. F. Antimicrob. Agents Chemother. 1990, 34, 1061-67). Cycloheximide was included as positive cytotoxic control, and untreated cells exposed to solvent were included as negative controls. The cytotoxicity IC50 was obtained from the concentration-response curve using the median effective method described previously (see Chou T.-C. & Talalay P. Adv. Enzyme Regul. 1984, 22, 27-55; Belen'kii M. S. & Schinazi R. F. Antiviral Res. 1994, 25, 1-11).

[2] = system: C57BL/6 mice fed with HFD; assay: Insulin tolerance test in HFD-fed C57BL/6 mice; format: in vivo; conditions: 15 mg/kg 3 times a week for 3 weeks
Description: At 4 months of age, an insulin tolerance test was performed on fasted C57BL/6 male mice following HFD feeding for 9 weeks following Compound 1 or saline with DMSO injections. Mice received an i.p. injection of human insulin (Actrapid) at a dosage of 0.88 units/kg followed by glucose checks every 20 minutes. […] Glucose measurements were assessed on blood from the tail following a tail snip at indicated time-points using a blood glucometer (Accu-Chek) and test strips (Accu-Chek).
Experimental design: C57BL/6 mice fed for 6 weeks with HFD were injected with 15 mg/kg Compound 1 (or saline+DMSO) 3 times a week for 3 weeks (n=6). Whole-blood glucose levels during an insulin tolerance test (ITT) in HFD fed Compound 1-treated mice vs. HFD-fed saline-treated mice and normal-diet fed mice (control ND); minutes indicate time after insulin injection. N.s.=not significant.

O=C1Nc2cc(C(=O)N3CCC(Cc4ccccc4)CC3)ccc2Nc2ccccc21 [Compound 1]
IC50 [1]: 11 µM
insulin sensitivity compared to the untreated cohort [2]: improves
blood glucose in insulin tolerance test after 100 minutes ([2]; 100 minutes after insulin): 70%
blood glucose, initial decrease in insulin tolerance test ([2]; after 45 minutes post-injection of insulin): approximately 55%
